Measured values from PubChem BioAssay (NCI).
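Dose response: 5 concentrations. Exposure: 48 h. Format: 96-well plates. Endpoint: linear interpolation; highest concentration if not reached. Abbreviation: GI50, concentration required for 50% inhibition of growth. Definition used: TGI = concentration required for complete inhibition of growth.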

Tests used:
Assay in all cases: growth of human tumour cells (NCI), 48 h
786-0 renal = tested on: 786-0 renal
A498 renal = tested on: A498 renal
A549 NSCLC = tested on: A549 NSCLC
ACHN renal = tested on: ACHN renal
BT-549 breast = tested on: BT-549 breast
CAKI-1 renal = tested on: CAKI-1 renal
CCRF-CEM leukemia = tested on: CCRF-CEM leukemia
COLO 205 colon = tested on: COLO 205 colon
DU-145 prostate = tested on: DU-145 prostate
HCC-2998 colon = tested on: HCC-2998 colon
HCT-116 colon = tested on: HCT-116 colon
HCT-15 colon = tested on: HCT-15 colon
HL-60(TB) leukemia = tested on: HL-60(TB) leukemia
HOP-62 NSCLC = tested on: HOP-62 NSCLC
HOP-92 NSCLC = tested on: HOP-92 NSCLC
HS 578T breast = tested on: HS 578T breast
HT29 colon = tested on: HT29 colon
IGROV1 ovarian = tested on: IGROV1 ovarian
K-562 leukemia = tested on: K-562 leukemia
KM12 colon = tested on: KM12 colon
LOX IMVI melanoma = tested on: LOX IMVI melanoma
M14 melanoma = tested on: M14 melanoma
MALME-3M melanoma = tested on: MALME-3M melanoma
MCF7 breast = tested on: MCF7 breast
MDA-MB-231 breast = tested on: MDA-MB-231 breast
MDA-MB-435 = tested on: MDA-MB-435
MOLT-4 leukemia = tested on: MOLT-4 leukemia
NCI-H226 lung = tested on: NCI-H226 lung
NCI-H23 lung = tested on: NCI-H23 lung
NCI-H460 lung = tested on: NCI-H460 lung
NCI-H522 lung = tested on: NCI-H522 lung
NCI/ADR-RES ovarian = tested on: NCI/ADR-RES ovarian
OVCAR-3 ovarian = tested on: OVCAR-3 ovarian
OVCAR-4 ovarian = tested on: OVCAR-4 ovarian
OVCAR-5 ovarian = tested on: OVCAR-5 ovarian
OVCAR-8 ovarian = tested on: OVCAR-8 ovarian
PC-3 prostate = tested on: PC-3 prostate
RPMI-8226 leukemia = tested on: RPMI-8226 leukemia
RXF 393 renal = tested on: RXF 393 renal
SF-268 CNS = tested on: SF-268 CNS
SF-295 CNS = tested on: SF-295 CNS
SF-539 CNS = tested on: SF-539 CNS
SK-MEL-2 melanoma = tested on: SK-MEL-2 melanoma
SK-MEL-28 melanoma = tested on: SK-MEL-28 melanoma
SK-MEL-5 melanoma = tested on: SK-MEL-5 melanoma
SK-OV-3 ovarian = tested on: SK-OV-3 ovarian
SN12C renal = tested on: SN12C renal
SNB-19 CNS = tested on: SNB-19 CNS
SNB-75 CNS = tested on: SNB-75 CNS
SR leukemia = tested on: SR leukemia
SW-620 colon = tested on: SW-620 colon
T-47D breast = tested on: T-47D breast
TK-10 renal = tested on: TK-10 renal
U251 CNS = tested on: U251 CNS
UACC-257 melanoma = tested on: UACC-257 melanoma
UACC-62 melanoma = tested on: UACC-62 melanoma
UO-31 renal = tested on: UO-31 renal

Cc1cc(Nc2nc(-c3ccc(F)cc3)nc3ccccc23)n[nH]1
GI50 (786-0 renal): 1.99 µM
TGI (786-0 renal): 38.1 µM
GI50 (A498 renal): 0.371 µM
TGI (A498 renal): 5.21 µM
GI50 (A549 NSCLC): 1.77 µM
TGI (A549 NSCLC): 18.1 µM
GI50 (ACHN renal): 0.818 µM
TGI (ACHN renal): 39.5 µM
GI50 (BT-549 breast): 7.3 µM
TGI (BT-549 breast): 21.6 µM
GI50 (CAKI-1 renal): 0.453 µM
TGI (CAKI-1 renal): 17.6 µM
GI50 (CCRF-CEM leukemia): 8.55 µM
TGI (CCRF-CEM leukemia): 39.6 µM
GI50 (COLO 205 colon): 1.35 µM
TGI (COLO 205 colon): 3.35 µM
GI50 (DU-145 prostate): 6.44 µM
TGI (DU-145 prostate): > 48.9 µM
GI50 (HCC-2998 colon): 5.24 µM
TGI (HCC-2998 colon): 25.4 µM
GI50 (HCT-116 colon): 0.76 µM
TGI (HCT-116 colon): 15.5 µM
GI50 (HCT-15 colon): 0.673 µM
TGI (HCT-15 colon): 33.9 µM
GI50 (HL-60(TB) leukemia): 2.78 µM
TGI (HL-60(TB) leukemia): 34.8 µM
GI50 (HOP-62 NSCLC): 4.76 µM
TGI (HOP-62 NSCLC): 20.3 µM
GI50 (HOP-92 NSCLC): 0.72 µM
TGI (HOP-92 NSCLC): 8.64 µM
GI50 (HS 578T breast): 0.842 µM
TGI (HS 578T breast): 7.54 µM
GI50 (HT29 colon): 0.691 µM
TGI (HT29 colon): 7.5 µM
GI50 (IGROV1 ovarian): 0.983 µM
TGI (IGROV1 ovarian): 9.17 µM
GI50 (K-562 leukemia): 3.91 µM
TGI (K-562 leukemia): 24.1 µM
GI50 (KM12 colon): 0.0631 µM
TGI (KM12 colon): 12 µM
GI50 (LOX IMVI melanoma): 1.05 µM
TGI (LOX IMVI melanoma): 11.2 µM
GI50 (M14 melanoma): 0.748 µM
TGI (M14 melanoma): 19.4 µM
GI50 (MALME-3M melanoma): 16.4 µM
TGI (MALME-3M melanoma): 31.8 µM
GI50 (MCF7 breast): 2.79 µM
TGI (MCF7 breast): 18.8 µM
GI50 (MDA-MB-231 breast): 9.15 µM
TGI (MDA-MB-231 breast): 26.8 µM
GI50 (MDA-MB-435): 1.65 µM
TGI (MDA-MB-435): 16.2 µM
GI50 (MOLT-4 leukemia): 10.1 µM
TGI (MOLT-4 leukemia): 35.1 µM
GI50 (NCI-H226 lung): 3.36 µM
TGI (NCI-H226 lung): 18 µM
GI50 (NCI-H23 lung): 5.74 µM
TGI (NCI-H23 lung): 24.9 µM
GI50 (NCI-H460 lung): 3.17 µM
TGI (NCI-H460 lung): 21 µM
GI50 (NCI-H522 lung): 3.44 µM
TGI (NCI-H522 lung): 18.8 µM
GI50 (NCI/ADR-RES ovarian): 4.5 µM
TGI (NCI/ADR-RES ovarian): 52.2 µM
GI50 (OVCAR-3 ovarian): 4.9 µM
TGI (OVCAR-3 ovarian): 31.6 µM
GI50 (OVCAR-4 ovarian): 3.2 µM
TGI (OVCAR-4 ovarian): 27.8 µM
GI50 (OVCAR-5 ovarian): 10.1 µM
TGI (OVCAR-5 ovarian): 34.5 µM
GI50 (OVCAR-8 ovarian): 7.28 µM
TGI (OVCAR-8 ovarian): 36.9 µM
GI50 (PC-3 prostate): 2.26 µM
TGI (PC-3 prostate): 21.4 µM
GI50 (RPMI-8226 leukemia): 9.22 µM
TGI (RPMI-8226 leukemia): 39.1 µM
GI50 (RXF 393 renal): 0.757 µM
TGI (RXF 393 renal): 5.09 µM
GI50 (SF-268 CNS): 3.85 µM
TGI (SF-268 CNS): 24.5 µM
GI50 (SF-295 CNS): 5.36 µM
TGI (SF-295 CNS): 21.2 µM
GI50 (SF-539 CNS): 2.81 µM
TGI (SF-539 CNS): 15.4 µM
GI50 (SK-MEL-2 melanoma): 0.811 µM
TGI (SK-MEL-2 melanoma): 16 µM
GI50 (SK-MEL-28 melanoma): 8.46 µM
TGI (SK-MEL-28 melanoma): 21.7 µM
GI50 (SK-MEL-5 melanoma): 7.4 µM
TGI (SK-MEL-5 melanoma): 20.3 µM
GI50 (SK-OV-3 ovarian): 0.855 µM
TGI (SK-OV-3 ovarian): 41.8 µM
GI50 (SN12C renal): 3.1 µM
TGI (SN12C renal): 25.2 µM
GI50 (SNB-19 CNS): 8.48 µM
TGI (SNB-19 CNS): > 93.9 µM
GI50 (SNB-75 CNS): 0.469 µM
TGI (SNB-75 CNS): 7.42 µM
GI50 (SR leukemia): 1.34 µM
TGI (SR leukemia): 38.4 µM
GI50 (SW-620 colon): 2.1 µM
TGI (SW-620 colon): 15.7 µM
GI50 (T-47D breast): 1.92 µM
TGI (T-47D breast): 11.8 µM
GI50 (TK-10 renal): 1.25 µM
TGI (TK-10 renal): 33.4 µM
GI50 (U251 CNS): 1.75 µM
TGI (U251 CNS): 21.4 µM
GI50 (UACC-257 melanoma): 10 µM
TGI (UACC-257 melanoma): 22.7 µM
GI50 (UACC-62 melanoma): 3.96 µM
TGI (UACC-62 melanoma): 19.6 µM
GI50 (UO-31 renal): 0.574 µM
TGI (UO-31 renal): 15 µM
